Patent US4628047A (priority 1982, dated 1986)
Converted amounts (≈) assume the structure as drawn. Counter-ions that a name gives are not always drawn. Like-named read-outs stand apart in the source and are kept apart here.

Key:
B16 melanoma cells F10 = test: Antitumor enhancement effect in solid tumor cells, B16 F10; format: cell-based; settings: on VCR, diltiazem 0 μM
[1] = tested on: P388 leukemia cells having resistance to vincristine; test: Growth inhibition of VCR-resistant P388 leukemia cells (P388/VCR); format: cell-based; settings: for IC50: Mus musculus; for Enhancement effect: on VCR
[2] = tested on: Colon 26 tumor cells NL-33; test: Antitumor enhancement effect in solid tumor cells, colon 26 NL-33; format: cell-based; settings: on VCR, diltiazem 0 μM
Colon 26 tumor cells N-1 = test: Antitumor enhancement effect in solid tumor cells, colon 26 N-1; format: cell-based; settings: on VCR, diltiazem 0 μM
[3] = tested on: Colon 26 tumor cells C26 mix; test: Antitumor enhancement effect in solid tumor cells, C26 mix; format: cell-based; settings: on VCR, diltiazem 0 μM
B16 melanoma cells B2 = test: Antitumor enhancement effect in solid tumor cells, B16 B2; format: cell-based; settings: on VCR, diltiazem 0 μM
B16 melanoma cells BL-6 = test: Antitumor enhancement effect in solid tumor cells, B16 BL-6; format: cell-based; settings: on VCR, diltiazem 0 μM
K562 = test: Growth inhibition of K562 leukemia cells; format: cell-based, human; settings: for IC50: Homo sapiens, K562, VCR; for Enhancement effect: on VCR
K562/VCR = test: Growth inhibition of VCR-resistant K562 leukemia cells (K562/VCR); format: cell-based, human; settings: for IC50: Homo sapiens, VCR; for Enhancement effect: on VCR
[4] = tested on: Colon 26 tumor cells KL-2; test: Antitumor enhancement effect in solid tumor cells, colon 26 KL-2; format: cell-based; settings: on VCR, diltiazem 0 μM
P388 leukemia cells = test: Growth inhibition of non-resistant P388 leukemia cells; format: cell-based; settings: for IC50: Mus musculus
B16 melanoma cells F1 = test: Antitumor enhancement effect in solid tumor cells, B16 F1; format: cell-based; settings: on VCR, diltiazem 0 μM
[5] = tested on: VCR-resistant P388 leukemia cells; test: Antitumor enhancement effects in mice inoculated with VCR-resistant P388 leukemia cells; format: in vivo, CDF1 female mice; settings: i.p., 10 days
[6] = tested on: B16 melanoma cells B16 mix; test: Antitumor enhancement effect in solid tumor cells, B16 mix; format: cell-based; settings: on VCR, diltiazem 0 μM
Colon 26 tumor cells N-5 = test: Antitumor enhancement effect in solid tumor cells, colon 26 N-5; format: cell-based; settings: on VCR, diltiazem 0 μM
P388/ADM = test: Growth inhibition of ADM-resistant P388 leukemia cells (P388/ADM); format: cell-based; settings: for IC50: Mus musculus; for Enhancement effect: on ADM
[7] = tested on: P388 leukemia cells having no resistance or resistance to VCR and ADM and human leukemia cells K562; test: Antitumor enhancement effects of diltiazem in resistant and non-resistant tumor cells (summary); format: cell-based; settings: regardless of whether the tumor cells are non-resistant or resistant
Text: Antitumor enhancement effects of diltiazem in resistant and non-resistant tumor cells: […]

[8] = tested on: ADM-resistant P388 leukemia cells; test: Antitumor enhancement effect in mice inoculated with ADM-resistant P388 leukemia cells; format: in vivo, CDF1 female mice; settings: diltiazem HCl 125 mg/kg alone, i.p., 10 days
[9] = VCR 30 μg/kg + diltiazem HCl 60 mg/kg
[10] = VCR 30 μg/kg + diltiazem HCl 80 mg/kg
[11] = VCR 30 μg/kg + diltiazem HCl 100 mg/kg
[12] = VCR 30 μg/kg + diltiazem HCl 125 mg/kg
[13] = VCR 100 μg/kg + diltiazem HCl 60 mg/kg
[14] = VCR 100 μg/kg + diltiazem HCl 80 mg/kg
[15] = VCR 100 μg/kg + diltiazem HCl 100 mg/kg
[16] = VCR 100 μg/kg + diltiazem HCl 125 mg/kg
[17] = VCR 200 μg/kg + diltiazem HCl 60 mg/kg
[18] = VCR 200 μg/kg + diltiazem HCl 80 mg/kg
[19] = VCR 200 μg/kg + diltiazem HCl 100 mg/kg
[20] = VCR 200 μg/kg + diltiazem HCl 125 mg/kg
[21] = diltiazem hydrochloride 180 mg per day, 4 days, in addition to vincristine 1 mg/week

## CC[C@]1(O)C[C@H]2CN(CCc3c([nH]c4ccccc34)[C@@](C(=O)OC)(c3cc4c(cc3OC)N(C=O)[C@H]3[C@@](O)(C(=O)OC)[C@H](OC(C)=O)[C@]5(CC)C=CCN6CC[C@]43[C@@H]65)C2)C1 [VCR, vincristine]
B16 melanoma cells F10
  ratio of IC50 dose (enhancement effect of diltiazem): 1.0
[1]; P388, VCR, diltiazem 0 μM, P388/VCR
  IC50: 29.7 ± 2.87 ng/mL (≈ 36 nM)
[1]; P388, VCR, with diltiazem 10 μM, P388/VCR
  IC50: 3.07 ± 0.09 ng/mL (≈ 3.72 nM)
[1]; P388, VCR, with diltiazem 35 μM, P388/VCR
  IC50: 1.03 ± 0.06 ng/mL (≈ 1.25 nM)
[1]; P388, VCR, with diltiazem 100 μM, P388/VCR
  IC50: 0.55 ± 0.17 ng/mL (≈ 0.667 nM)
[1]; P388, read-out: concentration of vincristine showing 50% inhibition of the resistant cells, with diltiazem (hydrochloride) 35 μM or 100 μM
  IC50: ≤ 1 ng/mL
[1]; diltiazem 0 μM, P388/VCR
  Enhancement effect: 1
[2]
  ratio of IC50 dose (enhancement effect of diltiazem): 1.0
Colon 26 tumor cells N-1
  ratio of IC50 dose (enhancement effect of diltiazem): 1.0
[3]
  ratio of IC50 dose (enhancement effect of diltiazem): 1.0
B16 melanoma cells B2
  ratio of IC50 dose (enhancement effect of diltiazem): 1.0
B16 melanoma cells BL-6
  ratio of IC50 dose (enhancement effect of diltiazem): 1.0
K562; diltiazem 0 μM
  IC50: 2.33 ± 0.24 ng/mL (≈ 2.82 nM)
  Enhancement effect: 1
K562; with diltiazem 10 μM
  IC50: 1.52 ± 0.09 ng/mL (≈ 1.84 nM)
K562; with diltiazem 35 μM
  IC50: 1 ± 0.17 ng/mL (≈ 1.21 nM)
K562; with diltiazem 100 μM
  IC50: 0.69 ± 0.1 ng/mL (≈ 0.836 nM)
K562/VCR; diltiazem 0 μM
  IC50: 200 ± 16.3 ng/mL (≈ 242 nM)
  Enhancement effect: 1
K562/VCR; with diltiazem 10 μM
  IC50: 23 ± 2.16 ng/mL (≈ 27.9 nM)
K562/VCR; with diltiazem 35 μM
  IC50: 4.1 ± 0.36 ng/mL (≈ 4.97 nM)
K562/VCR; with diltiazem 100 μM
  IC50: 2.57 ± 0.41 ng/mL (≈ 3.12 nM)
[4]
  ratio of IC50 dose (enhancement effect of diltiazem): 1.0
P388 leukemia cells; P388, VCR, diltiazem 0 μM
  IC50: 1.88 ± 0.13 ng/mL (≈ 2.28 nM)
P388 leukemia cells; P388, VCR, with diltiazem 10 μM
  IC50: 1.43 ± 0.12 ng/mL (≈ 1.73 nM)
P388 leukemia cells; P388, VCR, with diltiazem 35 μM
  IC50: 0.56 ± 0.06 ng/mL (≈ 0.679 nM)
P388 leukemia cells; P388, VCR, with diltiazem 100 μM
  IC50: 0.45 ± 0.02 ng/mL (≈ 0.545 nM)
P388 leukemia cells; on VCR, diltiazem 0 μM
  Enhancement effect: 1
B16 melanoma cells F1
  ratio of IC50 dose (enhancement effect of diltiazem): 1.0
[5]; VCR 30 μg/kg alone
  Survival time: 10.6 ± 2.1 days
  T/C: 93%
  T/V: 100%
[5]; VCR 100 μg/kg alone
  Survival time: 10.8 ± 1.3 days
  T/C: 95%
  T/V: 100%
[5]; VCR 200 μg/kg alone
  Survival time: 12.4 ± 1.0 days
  T/C: 109%
  T/V: 100%
[6]
  ratio of IC50 dose (enhancement effect of diltiazem): 1.0
Colon 26 tumor cells N-5
  ratio of IC50 dose (enhancement effect of diltiazem): 1.0
Chronic myeloplast; after third administration of vincristine 1 mg per week
  number of leukocytes and splenoma: the number of leukocytes and the splenoma still increased
Chronic myeloplast; vincristine 1 mg per week and predonisolone 60 mg per day
  number of leukocytes and splenoma: the number of leukocytes and the splenoma were temporarity somewhat recovered

## COc1cccc2c1C(=O)c1c(O)c3c(c(O)c1C2=O)C[C@@](O)(C(=O)CO)C[C@@H]3O[C@H]1C[C@H](N)[C@H](O)[C@H](C)O1 [ADM, doxorubicin]
P388 leukemia cells; P388, ADM, diltiazem 0 μM
  IC50: 10 ± 2.1 ng/mL (≈ 18.4 nM)
P388 leukemia cells; P388, ADM, with diltiazem 10 μM
  IC50: 7.7 ± 3.6 ng/mL (≈ 14.2 nM)
P388 leukemia cells; P388, ADM, with diltiazem 35 μM
  IC50: 6.9 ± 0.7 ng/mL (≈ 12.7 nM)
P388 leukemia cells; P388, ADM, with diltiazem 100 μM
  IC50: 6 ± 0.4 ng/mL (≈ 11 nM)
P388 leukemia cells; on ADM, diltiazem 0 μM
  Enhancement effect: 1
P388/ADM; ADM, diltiazem 0 μM
  IC50: 592 ± 76.8 ng/mL (≈ 1090 nM)
P388/ADM; ADM, with diltiazem 10 μM
  IC50: 133 ± 18.4 ng/mL (≈ 245 nM)
P388/ADM; ADM, with diltiazem 35 μM
  IC50: 53.7 ± 3.1 ng/mL (≈ 98.8 nM)
P388/ADM; ADM, with diltiazem 100 μM
  IC50: 30.7 ± 4.1 ng/mL (≈ 56.5 nM)
P388/ADM; read-out: concentration of doxorubicin showing 50% inhibition of the cells, with diltiazem 100 μM
  IC50: ~30 ng/mL (≈ 55.2 nM)
P388/ADM; read-out: dose for showing 50% inhibition of the tumor cells, doxorubicin alone
  IC50: 592 ng/mL (≈ 1090 nM)
P388/ADM; diltiazem 0 μM
  Enhancement effect: 1

## COc1ccc([C@@H]2Sc3ccccc3N(CCN(C)C)C(=O)[C@@H]2OC(C)=O)cc1 [Diltiazem, d-3-acetoxy-cis-2,3-dihydro-5-[2-(dimethylamino)ethyl]-2-(p-methoxyphenyl)-1,5-benzothiazepin-4(5H)-one]
[1]; diltiazem 10 μM, P388/VCR
  Enhancement effect: 9.7
[1]; diltiazem 35 μM, P388/VCR
  Enhancement effect: 28.8
[1]; diltiazem 100 μM, P388/VCR
  Enhancement effect: 54.0
K562; diltiazem 10 μM
  Enhancement effect: 1.5
K562; diltiazem 35 μM
  Enhancement effect: 2.3
K562; diltiazem 100 μM
  Enhancement effect: 3.4
K562/VCR; diltiazem 10 μM
  Enhancement effect: 8.7
K562/VCR; diltiazem 35 μM
  Enhancement effect: 48.8
K562/VCR; diltiazem 100 μM
  Enhancement effect: 77.8
P388 leukemia cells; on ADM, diltiazem 10 μM
  Enhancement effect: 1.3
P388 leukemia cells; on ADM, diltiazem 35 μM
  Enhancement effect: 1.4
P388 leukemia cells; on ADM, diltiazem 100 μM
  Enhancement effect: 1.7
P388 leukemia cells; on VCR, diltiazem 10 μM
  Enhancement effect: 1.3
P388 leukemia cells; on VCR, diltiazem 35 μM
  Enhancement effect: 3.4
P388 leukemia cells; on VCR, diltiazem 100 μM
  Enhancement effect: 4.2
[7]
  antitumor activity of the agents (ADM, VCR): the antitumor activity of the agents is enhanced by diltiazem
P388/ADM; diltiazem 10 μM
  Enhancement effect: 4.5
P388/ADM; diltiazem 35 μM
  Enhancement effect: 11.0
P388/ADM; diltiazem 100 μM
  Enhancement effect: 19.3

## COc1ccc([C@@H]2Sc3ccccc3N(CCN(C)C)C(=O)[C@@H]2OC(C)=O)cc1 [Diltiazem HCl]
[8]
  Survival time: 13.0 ± 0 days
[5]; [9]
  Survival time: 11.8 ± 1.9 days
  T/V: 111%
[5]; [10]
  Survival time: 13.8 ± 2.3 days
  T/C: 121%
  T/V: 130%
[5]; [11]
  Survival time: 12.2 ± 1.3 days
  T/V: 115%
[5]; [12]
  Survival time: 13.6 ± 1.9 days
  T/C: 119%
  T/V: 125%
[5]; [13]
  Survival time: 13.8 ± 1.7 days
  T/C: 121%
  T/V: 128%
[5]; [14]
  T/C: 126%
  T/V: 133%
[5]; [15]
  T/C: 132%
  T/V: 139%
[5]; [16]
  T/C: 132%
  T/V: 139%
[5]; [17]
  T/C: 130%
  T/V: 119%
[5]; [18]
  T/C: 130%
  T/V: 119%
[5]; [19]
  T/C: 139%
  T/V: 127%
[5]; [20]
  Survival time: 17.0 ± 1.2 days
  T/C: 149%
  T/V: 137%
[5]; diltiazem HCl 100 mg/kg alone
  Survival time: 11.8 ± 0.4 days
Chronic myeloplast; [21]
  both symptoms (leukocytes, splenoma): both symptoms were remarkably improved
  duration of the effect: about two
Chronic myeloplast; human, in vivo
  side effect: no side effect was observed
